We go through 5 compounds from publication PMC11242892, “Ceanothanes Derivatives as Peripheric Anionic Site and Catalytic Active Site Inhibitors of Acetylcholinesterase: Insights for Future Drug Design” (International Journal of Molecular Sciences, 2024).

Values joined by “and” are separate entries in the source; they are usually repeats but may differ in a detail not shown here. Equal values may be shown once. “Also recorded” adds a separate entry of the source.

In one test the target is T1, PAS of EeAChE (Electrophorus electricus, UniProt O42275).
T1 construct: purchased Sigma-Aldrich
T1 sequence (O42275 24-633): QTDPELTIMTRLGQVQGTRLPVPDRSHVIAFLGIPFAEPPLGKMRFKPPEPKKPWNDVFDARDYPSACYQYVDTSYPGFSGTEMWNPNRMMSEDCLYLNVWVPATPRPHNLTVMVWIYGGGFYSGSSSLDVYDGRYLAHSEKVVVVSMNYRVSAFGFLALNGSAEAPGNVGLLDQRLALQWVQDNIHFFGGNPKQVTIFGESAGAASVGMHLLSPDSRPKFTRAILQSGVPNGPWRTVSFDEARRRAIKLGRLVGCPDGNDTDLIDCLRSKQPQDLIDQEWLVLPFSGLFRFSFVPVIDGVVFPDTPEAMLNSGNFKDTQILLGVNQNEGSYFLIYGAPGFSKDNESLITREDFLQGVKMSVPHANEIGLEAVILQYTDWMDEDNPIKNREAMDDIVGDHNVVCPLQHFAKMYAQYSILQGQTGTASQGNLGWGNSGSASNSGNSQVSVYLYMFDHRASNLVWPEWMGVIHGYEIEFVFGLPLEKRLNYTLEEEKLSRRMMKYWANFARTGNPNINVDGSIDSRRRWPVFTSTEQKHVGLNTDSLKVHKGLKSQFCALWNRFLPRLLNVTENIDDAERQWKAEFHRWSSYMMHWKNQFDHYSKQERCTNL
As to the kind of experiment: Propidium iodide displacement assay. Format: binding. To be noted: five units EeAChE, 1 µM propidium iodide solution, triplicate. The procedure:
By interacting with soluble β-amyloid peptides and facilitating their aggregation, the AChE peripheral anionic site (PAS) at the gorge’s edge contributes to AChE’s pro-aggregation capacity toward β-amyloid. […] The potential ability of compounds to bind PAS and thus block the pro-aggregation activity of AChE is possible to evaluate through competitive propidium displacement from the PAS of AChE.
The percentage inhibition was calculated by the following expression: 100 − (IFi/IF0 × 100), where IF1 and IF0 correspond to fluorescence intensities with and without the test compound, respectively. Each assay was carried out in triplicate independent experiments.

Test [1] has as its target T2, acetylcholinesterase (AChE from Electrophorus electricus) (Electrophorus electricus, UniProt O42275).
T2 construct: purchased Sigma-Aldrich
As to the kind of experiment: Ellman assay, AChE inhibitory activity. To be noted: IC50 ± SEM, Ellman's assay. The test is classed as biochemical. How it is done:
The Ellman assay was used to test acetylcholinesterase (AChE from Electrophorus electricus) inhibition activity. A mixture of the DTNB (125 µL), enzyme solution (25 µL), and compound solution (25 µL) was prepared and incubated at room temperature for 20 min. All the assays were under 0.1 M KH2PO4/K2HPO4 buffer, pH 8.0. The substrate was added to start the enzymatic reaction. […] All measurements were performed fivefold as triplicate. The compounds were assayed in a dilution interval of 15 to 500 µg/mL.
(Ellman's reagent forms a yellow product with free thiols.)

The target of test [2] is T2, acetylcholinesterase (AChE from Electrophorus electricus). As to the kind of experiment: Kinetic characterization of AChE inhibition (Lineweaver–Burk). The test is classed as biochemical. The following applies: for Vmax: Lineweaver–Burk; for α: alpha calculated from Lineweaver–Burk plots; for type of inhibition: from Lineweaver–Burk plots and alpha. The procedure: To investigate the inhibition mechanism of the tested compounds on AChE, a kinetic analysis was performed. The experiments were carried out using a combination of four substrate concentrations and three inhibitor concentrations with the aim to obtain a double reciprocal plot (Lineweaver–Burk), in which each point is the mean of three different experiments. A parallel control with no inhibitor in the mixture allowed adjusted activities to be measured at various times.

T2 sequence (O42275 24-633): as above

As for `C=C(C)[C@@H]1CC[C@]2(C(=O)O)CC[C@]3(C)[C@H](CC[C@@H]4[C@@]5(C)[C@@H](C(=O)O)[C@H](O)C(C)(C)[C@@H]5CC[C@]43C)[C@@H]12` [Compound 1, Ceanothic acid], the “% Displacement of Propidium Iodide (Mean ± SEM)” value (“% Displacement … (Mean ± SEM)” below) at PAS of EeAChE worked out at 24.24 ± 0.32%. Besides, the IC50 – broadly, the concentration at which inhibition is half-maximal – is 47.4 µM and 47 µM in test [1] (pH 8.0, average of triplicate); 47.4 µM in test [1] (pH 8.0, triplicate).

Regarding `C=C(C)[C@@H]1CC[C@]2(C(=O)O)CC[C@]3(C)[C@H](CC[C@@H]4[C@@]5(C)[C@@H](C(=O)O)C(=O)C(C)(C)[C@@H]5CC[C@]43C)[C@@H]12` [Compound 2, 3-oxo-Ceanothic Acid], in test [2], the Vmax was 0.0032, the α is 1.01 and the type of inhibition entry is listed as “noncompetitive inhibitors”. Besides, the “% Displacement … (Mean ± SEM)” value on PAS of EeAChE stood at 28.71 ± 0.99%. The IC50 in test [1] (pH 8.0, average of triplicate) was 5.28 µM and 5.3 µM. For the same compound, in test [1] (pH 8.0, triplicate), the 50% inhibitory concentration (IC50) was 5.28 µM.

Consider `C=C(C)[C@@H]1CC[C@]2(C(=O)OC)CC[C@]3(C)[C@H](CC[C@@H]4[C@@]5(C)[C@@H](C(=O)OC)[C@H](O)C(C)(C)[C@@H]5CC[C@]43C)[C@@H]12` [Compound 3, Ceanothic 2, 28-Dimethyl Ester], for which, in test [2], the Vmax was found to be 0.0133, the α is given as 2.98 and the type of inhibition result is recorded as “mixed inhibitors”. Also, the “% Displacement … (Mean ± SEM)” value on PAS of EeAChE is listed as 27.01 ± 0.59%. Also, in test [1] (pH 8.0, average of triplicate), the IC50 is 14.4 µM and 14 µM. Further, the IC50 in test [1] (pH 8.0, triplicate) is 14.4 µM.

Turning to `C=C(C)[C@@H]1CC[C@]2(C(=O)O)CC[C@]3(C)[C@H](CC[C@@H]4[C@@]5(C)[C@@H](C(=O)O)[C@H](OCCCCBr)C(C)(C)[C@@H]5CC[C@]43C)[C@@H]12` [Compound 6, 3-(4-Bromobutoxy)-ceanothic Acid], in test [2], the Vmax is 0.0086, the α is listed as 0.98 and the type of inhibition entry was “noncompetitive inhibitors”. Moreover, on PAS of EeAChE, the “% Displacement … (Mean ± SEM)” value is listed as 31.51 ± 1.38%. Further, in test [1] (pH 8.0, average of triplicate), the IC50 is 8.4 µM and 8 µM. This compound had an IC50 in test [1] (pH 8.0, triplicate) of 8.4 µM.

For the compound `C=C(C)[C@@H]1CC[C@]2(C(=O)O)CC[C@]3(C)[C@H](CC[C@@H]4[C@@]5(C)[C@@H](C(=O)O)[C@H](OC(=O)c6ccco6)C(C)(C)[C@@H]5CC[C@]43C)[C@@H]12` [Compound 7, 3-O-Furoyl-ceanothic Acid], in test [2], the Vmax was 0.0205, the α was 10.39 and the type of inhibition result is recorded as “mixed inhibitors; also recorded: mixed-competitive-type inhibitor”. The “% Displacement … (Mean ± SEM)” value at PAS of EeAChE was 28.50 ± 2.55%. In test [1] (pH 8.0, average of triplicate), the IC50 is 17.9 µM and 18 µM. This compound gave an IC50 in test [1] (pH 8.0, triplicate) of 17.9 µM.
